Results as given in US11420984B2, “Arginase inhibitors and methods of use thereof” (AstraZeneca AB, priority 2018, dated 2022).
Where two headings read alike, the source gives them in different places. Marks after values point to notes of the source that are not given here.

Columns and labels:
Human Arginase 1 = Human Arginase 1 (Homo sapiens (Human), UniProt P05089); assay: Human Arginase 1 enzyme inhibition (thioarginine/DTNB absorbance assay); type: biochemical; details: recombinant enzyme 5 nM, 0.5 mM thioarginine premix, 60 min
Description: (§1) The thiol group was detected with Ellman's reagent, 5,5′-dithiobis(2-nitrobenzoic acid) (DTNB). DTNB reacts with the thiol to give the mixed disulfide and 2-nitro-5-thiobenzoic acid (TNB) which is quantified by the absorbance of the anion (TNB^2−) at 412 nm.
(§2) The assays were run in clear 384 well plates (Greiner cat no: 781101). […] Two pre-mixes were prepared from reagents thawed immediately before addition to assay plates. Pre-mix one comprised human Arginase 1 or human Arginase 2, at a final concentration of 5 nM and 0.5 mM DTNB in assay buffer, 45 mM HEPES pH7.5, brij 35, 0.045% (w/v) and 100 μM MnCl2. Pre-mix two comprised freshly thawed 0.5 mM thioarginine in assay buffer.
(§3) Assay plates were centrifuged prior to reading absorbance at 412 nm in a Pherastar multi-mode plate reader to collect data at time point 0 (T0). The plates were incubated at room temperature for 60 min prior to reading again to collect data at time point 1 (T1). Data is derived by subtracting the A412 signal measured at T0 (time point 0) from that measured at T1 (time point 1). The data was transformed to % effect using the equation: Compound % effect=100*[(X−min)/(max−min)], where X represents the normalized value for the compound based on the Min (vehicle) and Max (reference compound) inhibition control.

Human Arginase 2 = Human Arginase 2 (Homo sapiens (Human), UniProt P78540); assay: Human Arginase 2 enzyme inhibition (thioarginine/DTNB absorbance assay); type: biochemical; details: recombinant enzyme 5 nM, 0.5 mM thioarginine premix, 60 min
Description: as §1, §2, §3

[1] = Bioavailability / pharmacokinetic study in male rats (IV and PO); type: in vivo, rat; details: plasma; for Vd: read-out: Vdss
Description: Example 8 was formulated in 0.9% w/v saline pH 4 (adjusted with 1M HCl) for IV dosing. The formulation was dosed at 2 mg/kg by femoral catheter to two male rats each (170-250 g). Jugular vein catheter serial blood samples were taken at 0.033, 0.083, 0.167, 0.5, 1, 2, 4, 8, and 24 hrs post-dose. For PO dosing, Example 8 was formulated in deionized water pH 4 (adjusted with 1M HCl) and dosed at 5 mg/kg by oral gavage to two male rats each (170-250 g). Serial blood samples were taken by jugular vein catheter at 0.25, 0.5, 1, 1.5, 2, 3, 4, 8, and 24 hrs post dose. Plasma samples were generated from blood using low speed centrifugation. […] The samples and standards were extracted by precipitation with two volumes of acetonitrile followed by centrifugation. […] Where appropriate, measured and not nominal doses were used to calculate bioavalability.

[2] = Interconversion of Compound B to Compound A observed by NMR; type: physicochemical
Excerpt: Compound B (Example 19) was obtained by the intramolecular cyclization of Example 9 (Compound A) via an interconversion process. Furthermore, interconversions between Compound A (Example 9) and Compound B were observed under various conditions. For example, Compound B was converted to Compound A in the presence of water and such conversion was proportional to the concentration of water in the solvent. […] In d6-DMSO, compound B predominates, while there is a proportional increase in compound A with increase in D2O concentration. The proportion of compound A relative to compound B in 100% D2O reaches approximately 90%. Furthermore, Compound B was converted to Compound A under acidic condition.

[3] = Bioavailability / pharmacokinetic study in male rats (IV and PO); type: in vivo; details: Example 7 when dosed as payload, male rat
[4] = pro-drug itself, observed when dosed as pro-drug, male rat, IV 2 mg/kg
[5] = pro-drug itself, observed when dosed as pro-drug, male rat, PO 5 mg/kg

Sequence of Human Arginase 1 (P05089 whole entry): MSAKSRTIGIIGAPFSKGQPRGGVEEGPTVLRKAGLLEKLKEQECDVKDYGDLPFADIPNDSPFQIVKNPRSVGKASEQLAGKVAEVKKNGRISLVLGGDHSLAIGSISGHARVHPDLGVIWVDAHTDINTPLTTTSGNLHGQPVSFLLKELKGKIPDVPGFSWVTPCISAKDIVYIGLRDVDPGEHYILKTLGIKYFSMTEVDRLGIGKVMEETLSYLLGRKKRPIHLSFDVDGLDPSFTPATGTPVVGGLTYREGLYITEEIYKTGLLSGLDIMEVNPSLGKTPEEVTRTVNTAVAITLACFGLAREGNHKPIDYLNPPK
Sequence of Human Arginase 2 (P78540 23-354): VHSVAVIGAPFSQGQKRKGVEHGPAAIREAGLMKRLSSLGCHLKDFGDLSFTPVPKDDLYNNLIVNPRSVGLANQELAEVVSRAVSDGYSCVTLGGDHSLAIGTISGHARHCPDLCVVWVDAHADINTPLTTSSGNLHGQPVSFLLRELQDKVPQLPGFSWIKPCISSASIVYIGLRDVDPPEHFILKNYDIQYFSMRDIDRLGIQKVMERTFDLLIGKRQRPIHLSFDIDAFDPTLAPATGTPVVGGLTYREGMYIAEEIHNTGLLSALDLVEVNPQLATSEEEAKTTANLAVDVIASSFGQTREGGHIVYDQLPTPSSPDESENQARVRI

Row | Structure (SMILES) | IC50 (Human Arginase 1) | IC50 (Human Arginase 2) | clearance [1, 4] | Vd [1, 4] | AUC [1, 5] | Cmax [1, 5] | Tmax [1, 5] | bioavailability ([1]; pro-drug itself, observed when dosed as pro-drug, male rat, PO 5 mg/kg vs IV 2 mg/kg) | conversion to compound A under acidic condition ([2]; compound B in 0.1 M DCl in D2O) | proportion of compound A relative to compound B ([2]; compound B in 100% D2O) | clearance ([1]; male, rat, iv) | Vd ([1]; male, rat, iv) | Cl (mL/min/kg) [3] | Vdss (L/kg) [3]
1 | CC(C)[C@H](N)C(=O)N[C@H]1CN[C@]2(CCCCB(O)OC2=O)C1 [Example 19, (S)-2-amino-N-((3R,5R)-8-hydroxy-6-oxo-7-oxa-1-aza-8-boraspiro[4.7]dodecan-3-v1)-3-methylbutanamide] | 220 nM | 280 nM | 36.8 mL/min/kg | 0.2 L/kg | 0.21 µM·h | 330 nM | 15 min | 2.5% | almost complete conversion to compound A | approximately 90% |  |  |  | 
2 | N[C@H]1CN[C@@](CCCCB(O)O)(C(=O)O)C1 [Example 7, (2R,4R)-4-amino-2-(4-boronobutyl)pyrrolidine-2-carboxylic acid] |  |  |  |  |  |  |  |  |  |  | 8.9 mL/min/kg | 0.26 L/kg | 8.90 * mL/min/kg | 0.26 * L/kg
